Reference: ChEMBL document CHEMBL3632588 (Medchemcomm, 2015)

What was measured:
[1] = Cytotoxicity in mouse NMuMG cells assessed as cell growth at 20 uM after 72 hrs by colorimetry; assay type: cell-based; settings: read-out: Activity
[2] = Antiproliferative activity against mouse LM3 cells after 72 hrs by colorimetry; assay type: functional, cell-based; settings: LM3, 72 h
[3] = Ratio of IC50 for mouse NMuMG cells to IC50 for mouse B16F0 cells
[4] = test system: HeLa; test: Antiproliferative activity against human HeLa cells after 72 hrs by colorimetry; assay type: functional, cell-based
[5] = Antiproliferative activity against mouse B16F0 cells assessed as cell growth at 20 uM after 72 hrs by colorimetry; assay type: functional; settings: B16F0, 72 h, read-out: Activity
[6] = test system: HeLa; test: Antiproliferative activity against human HeLa cells assessed as cell growth at 20 uM after 72 hrs by colorimetry; assay type: functional; settings: read-out: Activity
[7] = test system: HeLa; test: Ratio of IC50 for mouse NMuMG cells to IC50 for human HeLa cells
[8] = Cytotoxicity in mouse NMuMG cells after 72 hrs by colorimetry; assay type: cell-based
[9] = Ratio of IC50 for mouse NMuMG cells to IC50 for mouse […] cells
[10] = test system: MCF7; test: Ratio of IC50 for mouse NMuMG cells to IC50 for human MCF7 cells
[11] = test system: MCF7; test: Antiproliferative activity against human MCF7 cells after 72 hrs by colorimetry; assay type: functional, cell-based; settings: MCF7, 72 h
[12] = Antiproliferative activity against mouse LM3 cells assessed as cell growth at 20 uM after 72 hrs by colorimetry; assay type: functional; settings: LM3, 72 h, read-out: Activity
[13] = Antiproliferative activity against mouse B16F0 cells after 72 hrs by colorimetry; assay type: functional, cell-based; settings: B16F0, 72 h
[14] = test system: MCF7; test: Antiproliferative activity against human MCF7 cells assessed as cell growth at 20 uM after 72 hrs by colorimetry; assay type: functional; settings: MCF7, 72 h, read-out: Activity

SMILES: COC(=O)[C@@H]1N2C(=O)C(Br)(Br)[C@H]2S(=O)(=O)[C@@]1(C)CCl
- viability at 72 h, 20 µM [1]: 35%

SMILES: COC(=O)[C@@H]1N2C(=O)C(Br)(Br)[C@H]2S[C@@]1(C)CSc1nc(-c2ccccc2)c(-c2ccccc2)o1
- IC50 [2]: 14 µM
- Ratio IC50 [3]: 2.8
- IC50 [4]: 7 µM
- growth at 20 µM [5]: 38%
- growth at 20 µM [6]: 7%
- viability at 72 h, 20 µM [1]: 55%
- Ratio IC50 [7]: 4.4
- IC50 [8]: 31 µM
- Ratio IC50 [9]: 2.2
- Ratio IC50 [10]: 1.7
- IC50 [11]: 18 µM
- growth at 20 µM [12]: 35%
- IC50 [13]: 11 µM
- growth at 20 µM [14]: 27%

SMILES: COC(=O)[C@@H]1N2C(=O)[C@H](Cl)[C@H]2S[C@@]1(C)CSc1nc2ccccc2s1
- IC50 [2]: 20 µM
- Ratio IC50 [3]: 2
- IC50 [4]: 18 µM
- growth at 20 µM [5]: 48%
- growth at 20 µM [6]: 44%
- viability at 72 h, 20 µM [1]: 55%
- Ratio IC50 [7]: 2
- IC50 [8]: 36 µM
- Ratio IC50 [9]: 1.8
- growth at 20 µM [12]: 55%
- IC50 [13]: 18 µM
- growth at 20 µM [14]: 66%

SMILES: COC(=O)[C@@H]1N2C(=O)[C@H](Cl)[C@H]2S[C@@]1(C)CSc1nc(-c2ccccc2)c(-c2ccccc2)o1
- IC50 [4]: 13 µM
- growth at 20 µM [5]: 65%
- growth at 20 µM [6]: 27%
- viability at 72 h, 20 µM [1]: 55%
- Ratio IC50 [7]: 2.5
- IC50 [8]: 32 µM
- growth at 20 µM [12]: 65%
- growth at 20 µM [14]: 87%

SMILES: COC(=O)[C@@H]1N2C(=O)[C@H](Cl)[C@H]2S[C@@]1(C)CSc1nc2ccccc2o1
- growth at 20 µM [5]: 68%
- growth at 20 µM [6]: 68%
- viability at 72 h, 20 µM [1]: 65%
- growth at 20 µM [12]: 87%
- growth at 20 µM [14]: 84%

SMILES: CCOc1ccc2nc(SC[C@]3(C)S[C@@H]4[C@@H](Cl)C(=O)N4[C@H]3C(=O)OC)sc2c1
- IC50 [2]: 24 µM
- Ratio IC50 [3]: 1.6
- IC50 [4]: 24 µM
- growth at 20 µM [5]: 52%
- growth at 20 µM [6]: 56%
- viability at 72 h, 20 µM [1]: 64%
- Ratio IC50 [7]: 1.8
- IC50 [8]: 43 µM
- Ratio IC50 [9]: 1.8
- growth at 20 µM [12]: 49%
- IC50 [13]: 27 µM
- growth at 20 µM [14]: 65%

SMILES: COC(=O)[C@@H]1N2C(=O)[C@H](Cl)[C@H]2S[C@@]1(C)CSC1=NCCS1
- IC50 [2]: 20 µM
- IC50 [4]: 19 µM
- growth at 20 µM [5]: 71%
- growth at 20 µM [6]: 48%
- viability at 72 h, 20 µM [1]: 65%
- Ratio IC50 [7]: 2.2
- IC50 [8]: 41 µM
- Ratio IC50 [9]: 2
- growth at 20 µM [12]: 54%
- growth at 20 µM [14]: 87%

SMILES: CCOc1ccc2nc(SC[C@@]3(C)[C@H](C(=O)OC)N4C(=O)[C@H](Cl)[C@H]4S3(=O)=O)sc2c1
- viability at 72 h, 20 µM [1]: 8%
